Data taken from patent US12642791B2, “Inhibitors of lysyl oxidases” (UNIVERSITY OF SOUTH CAROLINA, priority 2021, dated 2026).

Tests used:
[1] = In vivo toxicity testing; parameters: species or system BALB/c mice
Experimental: FIG. 41. In vivo testing of 6403 with respect to PK and toxicity. A. Summary of PK parameters of 6403 given orally with 50 mg/kg, n=3. B. H&E staining of organs of BALB/c mice treated daily with 50 or 200 mg/kg of 6403 for one week. C. Body weight of mice treated with vehicle or 25, 50, 75, 100 or 200 mg/kg of 6403 for 5 days. D. Cell-free enzymatic MAO-A and MAO-B assay.

[2] = system: ACHN ccRCC xenografts; experiment: Kidney cancer xenograft model; type: in vivo, BALB/c nude mice; conditions: 50 mg/kg, PO, daily
Experimental: FIG. 42. Efficacy of 6403 as a single agent in ccRC xenografts. Tumor volume (A), % body weight change (B) and blood count (C) of 6403-treated (50 mg/kg, PO, daily) ACHN xenografts. μg=microgram. LOX expression in ACHN cells is provided by an inset next to the graph in A.
For kidney xenografts, 4×10^6 ACHN cells were mixed with 1:1 DMEM and matrigel and injected into the flank of the BALB/c nude mice. Mouse weight and tumor volumes were measured every second day using calipers. When tumor sizes reach 100 mm^3, mice were randomly distributed into vehicle and 6403 treatment group. Mice were treated daily by oral gavage with vehicle v (50% PEG400, 1% Tween 80 in acetate buffer pH=4) or 50 mg/kg of 6403.

[3] = system: 4T1; experiment: Syngeneic TNBC tumor model; type: in vivo, BALB/c mice
Experimental: FIG. 43. 6403 overcomes doxorubicin resistance without major toxicity in a syngeneic mouse model, 4T1. A. Tumor growth in 4T1 model treated with doxorubicin (2 mg/kg, I.V, weekly), 6403 (50 mg/kg, P.O, daily) or their combination. Representative pictures of the tumors shown on the right panel. B. Western blot analysis of LOX in 4T1 tumors from A. C. % body weight change of mice from A. D. Blood cell counts in mice from A at the end of the experiment. 500,000 4T1 cells were injected into MFP of 6-8 weeks old female BALB/c mice. When the tumors reach 100 mm3, mice were randomly distributed to 4 groups and treated with vehicle, doxorubicin (2 mg/kg once a week, I.V.), 6403 (50 mg/kg daily, oral gavage) or the combination of doxorubicin with 6403. Tumor volumes were measured using a caliper every two days, and body weights were also recorded. After 3 weeks of treatment, blood was withdrawn, and blood cells were quantified using VetScan HM5 Hematology Analyzer.

Q: Which results are given for `CC(=O)Nc1ccc(Nc2nc(-c3sc(N)nc3C)cs2)cc1` [compound 6403, N-[4-[[4-(2-amino-4-methyl-thiazol-5-yl)thiazol-2-yl]amino]phenyl]acetamide]?
A: blood cell counts ([1]; 200 mg/kg vs vehicle): No significant effect; organ damage (H&E staining of organs) ([1]; 50 or 200 mg/kg daily for one week): did not lead to any observable organ damage; body weight ([1]; different doses administered daily (25-200 mg/kg, 5 days)): No significant effect; body weight [2]: without impacting; counts of major blood cells [2]: without impacting; tumor growth ([2]; single agent): successfully reduced the tumor growth; tumor growth ([3]; 6403 50 mg/kg P.O. daily with doxorubicin 2 mg/kg I.V. weekly, vs either alone): significantly reduced tumor growth; blood counts ([3]; combination, 21-day treatment): no significant change; body weights ([3]; combination, 21-day treatment): no significant change
